According to ChEMBL document CHEMBL1201862, “PubChem BioAssay data set” (2004):
Calls of active or inactive are those of the source.

Legend:
[1] = Luminescence Cell-Based Dose Retest to Confirm Inhibitors of Cancer Stem Cells. [Related pubchem assays (depositor defined):AID2717, AID2721]; format: functional; conditions: Homo sapiens
[2] = growth suppression of beta-catenin-knockout colon cells, dose response, cell-based, HCT116, human colon tumor (AID 1045); format: functional;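 also: HCT116 colon tumor cells with beta catenin knocked out; cells exposed to compound for 60 hours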
[3] = target: T1, Heat shock factor protein 1 (Mus musculus, UniProt P38532); experiment: HSF1 potentiators in luciferase reporter cells, confirmation, cell-based, NIH3T3, luminescence, dose retest (AID 435004); format: functional;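 also: stress induced by proteasome inhibitor MG132 added 30 min after compound; luciferase reporter driven by HSF1 response element in NIH3T3 cells; actives raise luminescence as potentiators of the MG132 stress response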
T1 sequence (P38532 whole entry): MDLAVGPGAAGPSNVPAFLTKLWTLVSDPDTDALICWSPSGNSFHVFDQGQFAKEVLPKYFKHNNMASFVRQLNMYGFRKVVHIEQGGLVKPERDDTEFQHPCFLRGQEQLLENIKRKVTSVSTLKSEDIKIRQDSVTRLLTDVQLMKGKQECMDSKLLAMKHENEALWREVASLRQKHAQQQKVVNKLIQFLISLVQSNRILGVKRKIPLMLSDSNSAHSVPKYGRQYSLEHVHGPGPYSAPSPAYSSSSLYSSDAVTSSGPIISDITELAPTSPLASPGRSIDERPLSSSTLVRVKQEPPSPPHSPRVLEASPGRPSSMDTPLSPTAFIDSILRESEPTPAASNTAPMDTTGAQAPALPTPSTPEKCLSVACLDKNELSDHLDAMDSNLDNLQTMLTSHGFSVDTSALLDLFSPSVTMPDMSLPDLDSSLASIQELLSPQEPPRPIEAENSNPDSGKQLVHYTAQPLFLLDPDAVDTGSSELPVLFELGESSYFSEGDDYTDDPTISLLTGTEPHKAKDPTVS

[4] = growth suppression of PTEN-null colon cells, dose response, cell-based, HCT116 PTEN knockout (AID 1047); format: functional;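 also: HCT116 colon tumor cells with PTEN knocked out; cells exposed to compound for 60 hours before readout; potency for loss of cell viability measured by luminescence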
[5] = tested on: H9c2; experiment: cells; format: functional, cell-based; conditions: Rattus norvegicus, H9c2, Myocardium;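 also: confirmatory concentration-response retest of ultra-high-throughput screening hits for modulation of myocardial damage; cell death induced by hydrogen peroxide oxidative stress; compound pretreatment for 60 min then peroxide exposure for 2 h; potency is for protecting the cells against peroxide damage rather than for killing them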
[6] = tested on: INS1; experiment: beta cell apoptosis inhibitors, cytokine rescue, dose response, luminescence, retest (AID 449756); format: functional, cell-based; conditions: Rattus norvegicus;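 also: cell death triggered by IL-1 beta plus TNF-alpha plus IFN-gamma mixture; protective hits raise ATP signal compared with cytokine alone wells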
[7] = target: T2, Replicative DNA helicase DnaB (Mycobacterium tuberculosis, UniProt P9WMR3); experiment: DnaB intein splicing inhibitors, dose response, biochemical, cell-free fluorescence (AID 449749); format: functional
T2 sequence (P9WMR3 whole entry): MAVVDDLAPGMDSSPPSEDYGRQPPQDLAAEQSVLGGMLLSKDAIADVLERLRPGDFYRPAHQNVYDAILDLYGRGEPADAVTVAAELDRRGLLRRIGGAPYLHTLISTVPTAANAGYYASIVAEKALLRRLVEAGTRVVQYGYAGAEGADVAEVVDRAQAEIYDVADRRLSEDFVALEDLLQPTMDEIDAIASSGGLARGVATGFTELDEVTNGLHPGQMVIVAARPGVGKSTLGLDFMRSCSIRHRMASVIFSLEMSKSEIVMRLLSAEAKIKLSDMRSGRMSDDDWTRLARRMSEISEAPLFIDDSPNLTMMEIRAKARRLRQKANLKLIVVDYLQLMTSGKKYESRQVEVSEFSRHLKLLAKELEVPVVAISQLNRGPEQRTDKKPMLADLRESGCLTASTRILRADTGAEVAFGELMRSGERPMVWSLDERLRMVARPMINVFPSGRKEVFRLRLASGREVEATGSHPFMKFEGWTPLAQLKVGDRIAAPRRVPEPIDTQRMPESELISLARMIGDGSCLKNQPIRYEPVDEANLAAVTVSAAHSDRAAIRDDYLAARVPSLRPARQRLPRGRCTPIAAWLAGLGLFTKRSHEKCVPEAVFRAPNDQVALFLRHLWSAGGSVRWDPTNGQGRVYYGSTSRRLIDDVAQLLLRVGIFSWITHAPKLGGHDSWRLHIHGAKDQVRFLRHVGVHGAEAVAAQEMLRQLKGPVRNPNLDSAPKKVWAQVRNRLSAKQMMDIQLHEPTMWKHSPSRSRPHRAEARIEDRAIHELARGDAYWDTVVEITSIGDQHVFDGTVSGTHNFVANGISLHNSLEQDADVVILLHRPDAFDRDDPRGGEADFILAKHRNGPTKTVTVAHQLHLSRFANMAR

[8] = target: T3, Protein RecA (Mycobacterium tuberculosis, UniProt P9WHJ3); experiment: Fluorescence Cell-Free Homogeneous Dose Retest to Identify Inhibitors of RecA-Intein Splicing Activity. [Related pubchem assays (depositor defined):AID2097, AID2223, AID489010, AID492950]; format: functional
T3 sequence (P9WHJ3 whole entry): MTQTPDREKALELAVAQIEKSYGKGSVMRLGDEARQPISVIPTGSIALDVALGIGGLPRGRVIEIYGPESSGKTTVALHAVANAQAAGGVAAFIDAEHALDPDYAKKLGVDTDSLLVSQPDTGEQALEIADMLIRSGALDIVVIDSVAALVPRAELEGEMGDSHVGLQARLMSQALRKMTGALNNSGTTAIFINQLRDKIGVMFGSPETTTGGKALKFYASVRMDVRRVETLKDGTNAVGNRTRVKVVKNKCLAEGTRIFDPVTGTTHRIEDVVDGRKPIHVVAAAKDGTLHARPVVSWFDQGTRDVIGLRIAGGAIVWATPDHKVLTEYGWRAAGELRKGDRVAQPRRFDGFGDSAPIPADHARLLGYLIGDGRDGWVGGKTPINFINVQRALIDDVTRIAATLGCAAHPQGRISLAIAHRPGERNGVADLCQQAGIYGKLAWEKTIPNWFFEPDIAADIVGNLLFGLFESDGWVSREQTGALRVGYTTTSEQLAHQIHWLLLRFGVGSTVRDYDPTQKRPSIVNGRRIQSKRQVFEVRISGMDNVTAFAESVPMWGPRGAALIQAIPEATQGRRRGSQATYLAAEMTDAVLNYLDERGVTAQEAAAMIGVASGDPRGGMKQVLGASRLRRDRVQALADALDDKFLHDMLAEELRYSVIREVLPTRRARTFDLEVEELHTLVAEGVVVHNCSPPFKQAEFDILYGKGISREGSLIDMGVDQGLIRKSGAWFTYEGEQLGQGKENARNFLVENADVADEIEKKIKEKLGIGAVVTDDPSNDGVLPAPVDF

[9] = HEp-2 cell cytotoxicity, dose response, cytotoxicity control for RSV inhibitor project, HTS (AID 2410); format: functional; conditions: human respiratory syncytial virus
[10] = cells; format: functional
[11] = target: FAD-linked sulfhydryl oxidase ALR (Homo sapiens, UniProt P55789); experiment: inhibitors of human ALR sulfhydryl oxidase, dose response, biochemical, H2O2 detection, luminescence, cherry-pick (AID 493248)
[12] = inhibitors of firefly luciferase expression or activity, dose response, H4 neuroglioma cells, luminescence (AID 1990); format: functional, cell-based
[13] = Luminescence Cell-Based Dose Response HTS to Identify Inhibitors of 5'UTR Stem-Loop Driven Prion Protein mRNA Translation in H4 Neuroglioblastoma Cells. [Related pubchem assays: 1827 (Project Summary), 1813 (Primary HTS)]; format: functional
[14] = inhibitors of SNCA 5'UTR-driven reporter translation, confirmation, H4 neuroglioma cells, luminescence (AID 1988); format: functional, cell-based
[15] = tested on: Streptococcus sp. 'group A'; experiment: growth inhibition of control SK(-) GAS strain, dose response, counter-screen for streptokinase expression inhibitor project, luminescence, kanamycin, BacTiterGlo, confirmation (AID 1900); format: functional, organism-based
[16] = tested on: Streptococcus; experiment: Group A Streptococcus viability loss, dose response, counter-screen for streptokinase expression inhibitor project, luminescence, BacTiterGlo (AID 1915); format: functional, organism-based;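 also: potency for reduction of bacterial viability or growth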
[17] = target: T4, Corticotropin-releasing factor receptor 2/Corticotropin-releasing factor-binding protein (Homo sapiens, UniProt P24387+Q13324); experiment: activators of CRF receptor 2 with binding protein – uHTS hits, confirmation (AID 602473); format: functional; conditions: read-out: EC50_Mean
T4 sequence (Q13324 whole entry): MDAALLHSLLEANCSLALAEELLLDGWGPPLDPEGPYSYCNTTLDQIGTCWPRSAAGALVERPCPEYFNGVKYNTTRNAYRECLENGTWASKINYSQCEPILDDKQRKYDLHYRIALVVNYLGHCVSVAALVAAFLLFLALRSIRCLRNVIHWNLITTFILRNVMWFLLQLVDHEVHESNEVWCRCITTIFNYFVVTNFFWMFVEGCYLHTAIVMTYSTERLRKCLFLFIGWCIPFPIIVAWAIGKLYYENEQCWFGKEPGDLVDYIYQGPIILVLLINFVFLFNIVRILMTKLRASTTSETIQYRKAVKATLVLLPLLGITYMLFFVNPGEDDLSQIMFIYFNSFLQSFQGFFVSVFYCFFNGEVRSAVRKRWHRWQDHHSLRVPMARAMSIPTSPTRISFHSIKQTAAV
T4 sequence (P24387 whole entry): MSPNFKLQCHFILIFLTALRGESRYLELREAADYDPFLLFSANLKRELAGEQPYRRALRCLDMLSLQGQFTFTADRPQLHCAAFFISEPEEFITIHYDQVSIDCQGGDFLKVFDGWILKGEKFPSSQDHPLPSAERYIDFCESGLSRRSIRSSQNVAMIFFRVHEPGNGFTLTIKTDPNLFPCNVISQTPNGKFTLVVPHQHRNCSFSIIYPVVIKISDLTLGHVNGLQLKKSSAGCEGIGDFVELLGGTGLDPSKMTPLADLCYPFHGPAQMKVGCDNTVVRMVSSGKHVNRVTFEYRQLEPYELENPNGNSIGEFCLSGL

[18] = target: T1, Heat shock factor protein 1; experiment: inhibition of MG132-induced HSE-luciferase signal, confirmation, cell-based, NIH3T3, luminescence, dose retest (AID 2382); format: functional;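 also: NIH3T3 fibroblasts with HSF1-driven luciferase reporter stressed by proteasome inhibitor MG132; luminescence from HSF1-driven luciferase expression after 8 hours of MG132 stress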

Sequence of FAD-linked sulfhydryl oxidase ALR (P55789 whole entry): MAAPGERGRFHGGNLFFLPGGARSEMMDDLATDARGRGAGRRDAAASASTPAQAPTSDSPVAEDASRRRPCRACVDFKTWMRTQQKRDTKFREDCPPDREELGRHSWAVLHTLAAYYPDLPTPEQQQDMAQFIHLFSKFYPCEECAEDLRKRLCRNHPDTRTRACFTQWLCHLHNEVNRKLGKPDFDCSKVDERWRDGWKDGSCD

Cc1ccc(C(C[N+](=O)[O-])n2nc(C)cc2C)cc1 (centres undefined)
AC50 [1]: 13 µM (active)

CCn1c2ccccc2c2cc(NC(=O)CSc3nnc(-c4cccc(OC)c4)n3N)ccc21
EC50 [2]: 31.5 µM (active) | EC50 [3]: 33.9 µM (active) | EC50 [4]: 32.1 µM (active)

Cc1ccccc1NP(=O)(Oc1ccccc1F)Oc1ccccc1F
IC50 [5]: > 79 µM (inactive)

CNc1nc2cc([N+](=O)[O-])c([N+](=O)[O-])cc2nc1NC
AC50 [6]: 0.32 µM (active)

Cc1ccc(Sc2c(C)[nH]n(C(C)(C)C)c2=O)cc1
AC50 [7]: 30 µM (active) | EC50 [8]: 1.47 µM (active)

C=C(C)COc1ccc(-c2nc(N)ncc2-c2ccc(Br)cc2)c(O)c1
AC50 [1]: 5.37 µM (active) | CC50 [9]: 15.7 µM (active)

O=C(Cn1[nH]c(=O)c2ccccc2c1=O)NC1CCN(Cc2ccccc2)CC1
IC50 [5]: > 79 µM (inactive)

Cc1ccccc1NC(=O)COc1cccc2c1CCNC2=O
IC50 [5]: 13.9 µM (active)

COC(=O)C1CCN(C(=O)c2cc(-c3ccc(Cl)s3)nc3ccccc23)CC1
AC50 [6]: 3.98 µM (active)

CCn1c(SCC(=O)Nc2ccc(OC)cc2)nc2nc3c(cc2c1=O)CCCC3
AC50 [6]: 38.7 µM (active)

O=C(Nc1ccc(Cl)c(Cl)c1)N1CCSC1c1ccco1 (centres undefined)
AC50 [6]: 11.8 µM (active)

O=C(COC(=O)CCc1c[nH]c2ccccc12)NCc1ccc2c(c1)OCO2
IC50 [10]: 11.3 µM (active)

COc1cc(-c2cc(C(=O)OCC(=O)NC3CC3)c3ccccc3n2)cc(OC)c1OC
IC50 [5]: > 79 µM (inactive)

CCCc1n[nH]c(O)c1C(c1ccc(Br)cc1)C(C#N)C#N (centres undefined)
AC50 [7]: 5.5 µM (active) | EC50 [8]: 4.06 µM (active) | AC50 [11]: 2.24 µM (active)

CC(C)Oc1cccc(C(=O)NC(=S)Nc2ccccc2N2CCOCC2)c1
AC50 [1]: 4.53 µM (active)

COc1cc(NC(=O)C/C(C)=N/NC(=O)c2cccs2)c(OC)cc1Cl
IC50 [10]: 2.79 µM (active)

C=C(C)CN=C(S)NNC(=O)CCn1c2ccc(Cl)cc2c2cc(Cl)ccc21
EC50 [12]: > 120 µM (not active) | AC50 [1]: 1.44 µM (active) | EC50 [13]: > 120 µM (not active) | EC50 [14]: > 120 µM (not active) | EC50 [15]: 2.84 µM (active) | EC50 [16]: 8.01 µM (active)

N#Cc1c(-c2ccco2)cc(-c2cccnc2)nc1N
IC50 [5]: > 79 µM (inactive)

CCN(CC)c1ccc(C2C(C(=O)OC(C)C)C(=O)CC(C)(O)C2C(=O)OC(C)C)cc1 (centres undefined)
IC50 [5]: > 79 µM (inactive)

O=C(Oc1ccc(N(Cc2cccs2)C2=NS(=O)(=O)c3ccccc32)cc1)c1ccccc1Cl
IC50 [5]: 23.2 µM (active)

COc1ccccc1NC(=O)c1cc(-c2ccc(OC)c(OC)c2)nc2ccccc12
IC50 [5]: > 79 µM (inactive)

COc1cccc(/C(O)=C/c2nc3ccc(C(=O)NCCc4ccc(Cl)cc4)cc3nc2O)c1
EC50 [2]: 4.16 µM (active) | EC50 [17]: 5.02 µM (active) | EC50 [4]: 4.26 µM (active)

CC(C)c1n[nH]c2c1C(c1cccnc1)C(C#N)=C(N)O2 (centres undefined)
AC50 [7]: 1.78 µM (active) | EC50 [8]: 1.81 µM (inconclusive)

CSc1nc(=S)n(-c2ccc([N+](=O)[O-])cc2)c(C)c1C(C)=O
AC50 [7]: 40.3 µM (active) | EC50 [8]: 12.1 µM (active)

Cc1ccc2[nH]c3nc(N/N=C/c4cccc(O)c4)nnc3c2c1
AC50 [1]: < 0.16 µM (active)

CCOc1ccc(N=Nc2c(N)n[nH]c2O)cc1
EC50 [18]: > 195 µM (not active) | AC50 [7]: 15.3 µM (active) | EC50 [8]: 3.85 µM (active)

c1ccc(CN2CCC(Nc3nc(-c4cccs4)nc4ccccc34)CC2)cc1
AC50 [1]: 4.2 µM (active)
